The results in this text go back to ChEMBL document CHEMBL1125900, “Biologically active taxol analogues with deleted A-ring side chain substituents and variable C-2' configurations” (J Med Chem, 1991).

The subject of one data set is CHO. In words: Concentration that inhibits cell division by 50% after 72 hr for CHO cells was determined. The format is functional. Conditions: Cricetulus griseus, read-out: ED50 (the source's name).
The nature of data set [1]: Solubility in H2O was measured. Conditions: water. Format: physicochemical.
The species named for a further data set is Homo sapiens. Briefly: Effect on microtubule protein assembly was determined in vitro. Format: functional.
A further data set deals with J774.2. In words: Concentration that inhibits cell division by 50% after 72 hr for J774.2 cells was determined. Conditions: Mus musculus, J774.2, 72 h; read-out: ED50 (the source's name). The format is functional.

In brackets after ≈: the same amount, converted by molar mass.

As a reminder, the solubility is how much of the substance goes into solution per volume. On to `CC(=O)O[C@H]1C(=O)[C@@]2(C)[C@H]([C@H](OC(=O)c3ccccc3)[C@]3(O)C[C@H](OC(=O)[C@H](O)Cc4ccccc4)C(C)=C1C3(C)C)[C@]1(OC(C)=O)CO[C@@H]1C[C@@H]2O`, for which the EC50 was determined as 5.5 µM in the data set on CHO and 3.5 µM in the data set with J774.2. This molecule yielded a solubility in data set [1] of 175 µM (≈ 129 µg/mL). The molecule also displayed an Assembly in the data set filed under Homo sapiens of 68%.
As to `CC(=O)O[C@H]1C(=O)[C@@]2(C)[C@H]([C@H](OC(=O)c3ccccc3)[C@]3(O)C[C@H](OC(=O)[C@@H](C)O)C(C)=C1C3(C)C)[C@]1(OC(C)=O)CO[C@@H]1C[C@@H]2O`, the EC50 with CHO was greater than 45 µM; in the data set on J774.2, 27 µM. Moreover, in data set [1], the concentration in solution (solubility) was 820 µM (≈ 540 µg/mL). This molecule also displayed an Assembly in the data set listed under Homo sapiens of 31%.
Consider `CC(=O)O[C@H]1C(=O)[C@@]2(C)[C@H]([C@H](OC(=O)c3ccccc3)[C@]3(O)C[C@H](OC(=O)[C@H](O)CNC(=O)c4ccccc4)C(C)=C1C3(C)C)[C@]1(OC(C)=O)CO[C@@H]1C[C@@H]2O`, for which the EC50 in the data set on CHO came to 32 µM; in the data set on J774.2 it was 20 µM. The same molecule registered a solubility in data set [1] of 615 µM (≈ 478 µg/mL). Further, the Assembly in the data set filed under Homo sapiens came to 60%.
Consider `CC(=O)O[C@H]1C(=O)[C@@]2(C)[C@H]([C@H](OC(=O)c3ccccc3)[C@]3(O)C[C@H](OC(=O)[C@H](C)O)C(C)=C1C3(C)C)[C@]1(OC(C)=O)CO[C@@H]1C[C@@H]2O`, for which the EC50 in the data set on CHO was greater than 45 µM; with J774.2 it was 29 µM. This molecule also showed a solubility in data set [1] of 1000 µM (≈ 659 µg/mL). Besides, in the data set listed under Homo sapiens, the Assembly is reported as 38%.
Regarding `CC(=O)O[C@H]1C(=O)[C@@]2(C)[C@H]([C@H](OC(=O)c3ccccc3)[C@]3(O)C[C@H](OC(=O)[C@@H](O)Cc4ccccc4)C(C)=C1C3(C)C)[C@]1(OC(C)=O)CO[C@@H]1C[C@@H]2O`, the EC50 with CHO is 5.3 µM; in the data set with J774.2, 3.4 µM. Moreover, the solubility in data set [1] was found to be 160 µM (≈ 118 µg/mL). Also, the Assembly in the data set filed under Homo sapiens is 69%.
In the data set listed under Homo sapiens, `Nc1nc2c(ncn2[C@@H]2O[C@H](COP(=O)(O)OP(=O)(O)OP(=O)(O)O)[C@@H](O)[C@H]2O)c(=O)[nH]1` [GUANOSINE TRIPHOSPHATE] came in with an Assembly of 70%.
Consider `CC(=O)O[C@H]1C(=O)[C@@]2(C)[C@H]([C@H](OC(=O)c3ccccc3)[C@]3(O)C[C@H](OC(=O)[C@@H](O)CNC(=O)c4ccccc4)C(C)=C1C3(C)C)[C@]1(OC(C)=O)CO[C@@H]1C[C@@H]2O`, for which, in data set [1], the concentration in solution (solubility) was 565 µM (≈ 439 µg/mL).
For `CC(=O)O[C@H]1C(=O)[C@@]2(C)[C@H]([C@H](OC(=O)c3ccccc3)[C@]3(O)C[C@H](OC(=O)[C@H](O)[C@@H](NC(=O)c4ccccc4)c4ccccc4)C(C)=C1C3(C)C)[C@]1(OC(C)=O)CO[C@@H]1C[C@@H]2O` [PACLITAXEL], the EC50 with CHO was 0.35 µM; in the data set on J774.2 it was 0.09 µM. The molecule further gave an Assembly in the data set filed under Homo sapiens of 100%.
